# Patent US6645983B1, “Pharmaceutical compositions comprising 4-quinolones for treating cancers” (Laboratoire L. Lafon, priority 1999, dated 2003)
# Tested on: SW1088
# Assay: MTT test, cytotoxic activity on non-clonogenic cell lines
# Type: cell-based
# Settings: Homo sapiens, 10^−5 M, 72 hours incubation, MTT, mean value, read-out: mean optical density, expressed as percentage relative to the mean optical density under the control condition (100%)
# How it was run: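 Human astrocytoma SW1088 cells seeded, grown 24 h at 37° C, 5% CO2, then exposed to compounds at 10^−5 to 10^−10 M versus solvent control. Viability by MTT reduction: 3 h MTT incubation, formazan dissolved in DMSO and read by spectrophotometry.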
row,SMILES,viability at 10 µM [%]
1,"COc1ccc(-c2cn(C)c3cc(OC)cc(N)c3c2=O)cc1 [CRL8461, 5-Amino-7-methoxy-3-(4-methoxyphenyl)-1-methyl-1,4-dihydro-4-quinolinone]",91.9

# Same assay, conditions: Homo sapiens, 10^−5 M, 72 hours of incubation, control condition = 100%, mean value, read-out: mean optical density as percentage of control, SW1088
row,SMILES,viability at 10 µM [%]
1,"COc1ccc(-c2cn(CC#N)c3c(OC)ccc(OC)c3c2=O)cc1 [CRL8413, [5,8-Dimethoxy-3-(4-methoxyphenyl)-4-oxo-1,4-dihydro-1-quinolinyl]acetonitrile]",83.7

# Tested on: J82
# Assay: as above
# Type: cell-based
# Settings: Homo sapiens, 10^−5 M, 72 hours incubation, MTT, mean value, read-out: mean optical density, expressed as percentage relative to the mean optical density under the control condition (100%)
# How it was run: (§1)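 Human bladder cancer lines were seeded at 20 000–50 000 cells/ml and, after 24 h, exposed to compounds at 10^−5 to 10^−10 M against a solvent control. Formazan was dissolved in DMSO and viability was read by spectrophotometric optical density.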
row,SMILES,viability at 10 µM [%]
1,"COc1ccc(-c2cn(C)c3cc(OC)cc(N)c3c2=O)cc1 [CRL8461, 5-Amino-7-methoxy-3-(4-methoxyphenyl)-1-methyl-1,4-dihydro-4-quinolinone]",94.9

# Same assay, conditions: Homo sapiens, 10^−5 M, 72 hours of incubation, control condition = 100%, mean value, read-out: mean optical density as percentage of control, J82
row,SMILES,viability at 10 µM [%]
1,"COc1ccc(-c2cn(CC#N)c3c(OC)ccc(OC)c3c2=O)cc1 [CRL8413, [5,8-Dimethoxy-3-(4-methoxyphenyl)-4-oxo-1,4-dihydro-1-quinolinyl]acetonitrile]",88.4

# Tested on: T24
# Assay: as above
# Type: cell-based
# Settings: Homo sapiens, T-24; 10^−5 M, 72 hours of incubation, control condition = 100%, mean value; read-out: mean optical density as percentage of control, T24
# How it was run: as §1
row,SMILES,viability at 10 µM [%]
1,"COc1ccc(-c2cn(CC#N)c3c(OC)ccc(OC)c3c2=O)cc1 [CRL8413, [5,8-Dimethoxy-3-(4-methoxyphenyl)-4-oxo-1,4-dihydro-1-quinolinyl]acetonitrile]",71.8

# Same assay, conditions: Homo sapiens, T-24; T24; 10^−5 M; 72 hours incubation; MTT; mean value; read-out: mean optical density, expressed as percentage relative to the mean optical density under the control condition (100%)
row,SMILES,viability at 10 µM [%]
1,"COc1ccc(-c2cn(C)c3cc(OC)cc(N)c3c2=O)cc1 [CRL8461, 5-Amino-7-methoxy-3-(4-methoxyphenyl)-1-methyl-1,4-dihydro-4-quinolinone]",107

# Tested on: U-373MG
# Assay: as above
# Type: cell-based
# Settings: Homo sapiens, U373 MG; 10^−5 M, 72 hours of incubation, control condition = 100%, mean value; read-out: mean optical density as percentage of control, U-373MG
# How it was run: (§2)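 Human cancer lines seeded at 20 000–50 000 cells/ml, allowed 24 h to attach, then exposed to compounds at 10^−5 to 10^−10 M versus solvent control.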
row,SMILES,viability at 10 µM [%]
1,"COc1ccc(-c2cn(CC#N)c3c(OC)ccc(OC)c3c2=O)cc1 [CRL8413, [5,8-Dimethoxy-3-(4-methoxyphenyl)-4-oxo-1,4-dihydro-1-quinolinyl]acetonitrile]",66.4

# Same assay, conditions: Homo sapiens, U373 MG; U-373MG; 10^−5 M; 72 hours incubation; MTT; mean value; read-out: mean optical density, expressed as percentage relative to the mean optical density under the control condition (100%)
row,SMILES,viability at 10 µM [%]
1,"COc1ccc(-c2cn(C)c3cc(OC)cc(N)c3c2=O)cc1 [CRL8461, 5-Amino-7-methoxy-3-(4-methoxyphenyl)-1-methyl-1,4-dihydro-4-quinolinone]",91.6

# Tested on: HCT-15
# Assay: as above
# Type: cell-based
# Settings: Homo sapiens, 10^−5 M, 72 hours of incubation, control condition = 100%, mean value, read-out: mean optical density as percentage of control, HCT-16
# How it was run: as §2
row,SMILES,viability at 10 µM [%]
1,"COc1ccc(-c2cn(CC#N)c3c(OC)ccc(OC)c3c2=O)cc1 [CRL8413, [5,8-Dimethoxy-3-(4-methoxyphenyl)-4-oxo-1,4-dihydro-1-quinolinyl]acetonitrile]",65.9

# Same assay, conditions: Homo sapiens, HCT-16, 10^−5 M, 72 hours incubation, MTT, mean value, read-out: mean optical density, expressed as percentage relative to the mean optical density under the control condition (100%)
row,SMILES,viability at 10 µM [%]
1,"COc1ccc(-c2cn(C)c3cc(OC)cc(N)c3c2=O)cc1 [CRL8461, 5-Amino-7-methoxy-3-(4-methoxyphenyl)-1-methyl-1,4-dihydro-4-quinolinone]",88.5

# Tested on: A-427
# Assay: as above
# Type: cell-based
# Settings: Homo sapiens, 10^−5 M, 72 hours incubation, MTT, mean value, read-out: mean optical density, expressed as percentage relative to the mean optical density under the control condition (100%)
# How it was run: as §2
row,SMILES,viability at 10 µM [%]
1,"COc1ccc(-c2cn(C)c3cc(OC)cc(N)c3c2=O)cc1 [CRL8461, 5-Amino-7-methoxy-3-(4-methoxyphenyl)-1-methyl-1,4-dihydro-4-quinolinone]",90.5

# Same assay, conditions: Homo sapiens, 10^−5 M, 72 hours of incubation, control condition = 100%, mean value, read-out: mean optical density as percentage of control, A-427
row,SMILES,viability at 10 µM [%]
1,"COc1ccc(-c2cn(CC#N)c3c(OC)ccc(OC)c3c2=O)cc1 [CRL8413, [5,8-Dimethoxy-3-(4-methoxyphenyl)-4-oxo-1,4-dihydro-1-quinolinyl]acetonitrile]",73.3

# Tested on: U-87MG
# Assay: as above
# Type: cell-based
# Settings: Homo sapiens, U-87 MG; 10^−5 M, 72 hours of incubation, control condition = 100%, mean value; read-out: mean optical density as percentage of control, U-87MG
# How it was run: as §2
row,SMILES,viability at 10 µM [%]
1,"COc1ccc(-c2cn(CC#N)c3c(OC)ccc(OC)c3c2=O)cc1 [CRL8413, [5,8-Dimethoxy-3-(4-methoxyphenyl)-4-oxo-1,4-dihydro-1-quinolinyl]acetonitrile]",56

# Same assay, conditions: Homo sapiens; U-87MG; 10^−5 M; 72 hours incubation; MTT; mean value; read-out: mean optical density, expressed as percentage relative to the mean optical density under the control condition (100%)
row,SMILES,viability at 10 µM [%]
1,"COc1ccc(-c2cn(C)c3cc(OC)cc(N)c3c2=O)cc1 [CRL8461, 5-Amino-7-methoxy-3-(4-methoxyphenyl)-1-methyl-1,4-dihydro-4-quinolinone]",77.2

# Tested on: A549
# Assay: as above
# Type: cell-based
# Settings: Homo sapiens, 10^−5 M, 72 hours incubation, MTT, mean value, read-out: mean optical density, expressed as percentage relative to the mean optical density under the control condition (100%)
# How it was run: as §2
row,SMILES,viability at 10 µM [%]
1,"COc1ccc(-c2cn(C)c3cc(OC)cc(N)c3c2=O)cc1 [CRL8461, 5-Amino-7-methoxy-3-(4-methoxyphenyl)-1-methyl-1,4-dihydro-4-quinolinone]",99.7

# Same assay, conditions: Homo sapiens, 10^−5 M, 72 hours of incubation, control condition = 100%, mean value, read-out: mean optical density as percentage of control, A549
row,SMILES,viability at 10 µM [%]
1,"COc1ccc(-c2cn(CC#N)c3c(OC)ccc(OC)c3c2=O)cc1 [CRL8413, [5,8-Dimethoxy-3-(4-methoxyphenyl)-4-oxo-1,4-dihydro-1-quinolinyl]acetonitrile]",48.7

# Tested on: PC-3
# Assay: as above
# Type: cell-based
# Settings: Homo sapiens, 10^−5 M, 72 hours incubation, MTT, mean value, read-out: mean optical density, expressed as percentage relative to the mean optical density under the control condition (100%)
# How it was run: as §2
row,SMILES,viability at 10 µM [%]
1,"COc1ccc(-c2cn(C)c3cc(OC)cc(N)c3c2=O)cc1 [CRL8461, 5-Amino-7-methoxy-3-(4-methoxyphenyl)-1-methyl-1,4-dihydro-4-quinolinone]",91.9

# Same assay, conditions: Homo sapiens, 10^−5 M, 72 hours of incubation, control condition = 100%, mean value, read-out: mean optical density as percentage of control, PC-3
row,SMILES,viability at 10 µM [%]
1,"COc1ccc(-c2cn(CC#N)c3c(OC)ccc(OC)c3c2=O)cc1 [CRL8413, [5,8-Dimethoxy-3-(4-methoxyphenyl)-4-oxo-1,4-dihydro-1-quinolinyl]acetonitrile]",63.4

# Tested on: T-47D
# Assay: as above
# Type: cell-based
# Settings: Homo sapiens, T47D; 10^−5 M, 72 hours of incubation, control condition = 100%, mean value; read-out: mean optical density as percentage of control, T-47D
# How it was run: as §2
row,SMILES,viability at 10 µM [%]
1,"COc1ccc(-c2cn(CC#N)c3c(OC)ccc(OC)c3c2=O)cc1 [CRL8413, [5,8-Dimethoxy-3-(4-methoxyphenyl)-4-oxo-1,4-dihydro-1-quinolinyl]acetonitrile]",112

# Same assay, conditions: Homo sapiens, T47D; T-47D; 10^−5 M; 72 hours incubation; MTT; mean value; read-out: mean optical density, expressed as percentage relative to the mean optical density under the control condition (100%)
row,SMILES,viability at 10 µM [%]
1,"COc1ccc(-c2cn(C)c3cc(OC)cc(N)c3c2=O)cc1 [CRL8461, 5-Amino-7-methoxy-3-(4-methoxyphenyl)-1-methyl-1,4-dihydro-4-quinolinone]",51.9

# Tested on: LoVo
# Assay: as above
# Type: cell-based
# Settings: Homo sapiens, 10^−5 M, 72 hours incubation, MTT, mean value, read-out: mean optical density, expressed as percentage relative to the mean optical density under the control condition (100%)
# How it was run: as §2
row,SMILES,viability at 10 µM [%]
1,"COc1ccc(-c2cn(C)c3cc(OC)cc(N)c3c2=O)cc1 [CRL8461, 5-Amino-7-methoxy-3-(4-methoxyphenyl)-1-methyl-1,4-dihydro-4-quinolinone]",92.7

# Same assay, conditions: Homo sapiens, 10^−5 M, 72 hours of incubation, control condition = 100%, mean value, read-out: mean optical density as percentage of control, LoVo
row,SMILES,viability at 10 µM [%]
1,"COc1ccc(-c2cn(CC#N)c3c(OC)ccc(OC)c3c2=O)cc1 [CRL8413, [5,8-Dimethoxy-3-(4-methoxyphenyl)-4-oxo-1,4-dihydro-1-quinolinyl]acetonitrile]",85.6

# Tested on: MCF7
# Assay: as above
# Type: cell-based
# Settings: Homo sapiens, 10^−5 M, 72 hours incubation, MTT, mean value, read-out: mean optical density, expressed as percentage relative to the mean optical density under the control condition (100%)
# How it was run: as §2
row,SMILES,viability at 10 µM [%]
1,"COc1ccc(-c2cn(C)c3cc(OC)cc(N)c3c2=O)cc1 [CRL8461, 5-Amino-7-methoxy-3-(4-methoxyphenyl)-1-methyl-1,4-dihydro-4-quinolinone]",68.2

# Same assay, conditions: Homo sapiens, 10^−5 M, 72 hours of incubation, control condition = 100%, mean value, read-out: mean optical density as percentage of control, MCF7
row,SMILES,viability at 10 µM [%]
1,"COc1ccc(-c2cn(CC#N)c3c(OC)ccc(OC)c3c2=O)cc1 [CRL8413, [5,8-Dimethoxy-3-(4-methoxyphenyl)-4-oxo-1,4-dihydro-1-quinolinyl]acetonitrile]",67.2

# Tested on: not listed separately
# Assay: Determination of the maximum tolerated dose (MTD)
# Settings: B6D2F1/Jico, mouse, in vivo, ip; single intraperitoneal administration, doses 2.5 to 160 mg/kg, survival over 14 days
# How it was run: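 Mice were 4- to 6-week-old B6D2F1/Jico. They received a single intraperitoneal dose of 2.5 to 160 mg/kg, and survival and body weight were followed for 14 days. MTD is given in mg/kg and is capped at 160 mg/kg by default.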
row,SMILES,MTD at 14 day [mg/kg]
1,"COc1ccc(-c2cn(CC#N)c3c(OC)ccc(OC)c3c2=O)cc1 [CRL8413, [5,8-Dimethoxy-3-(4-methoxyphenyl)-4-oxo-1,4-dihydro-1-quinolinyl]acetonitrile]",> 160
2,"COc1ccc(-c2cn(C)c3cc(OC)cc(N)c3c2=O)cc1 [CRL8461, 5-Amino-7-methoxy-3-(4-methoxyphenyl)-1-methyl-1,4-dihydro-4-quinolinone]",> 160
